According to US20180362487A1, “STEREOISOMER OF BROMADIOLONE, COMPOSITION AND RODENTICIDAL BAIT COMPRISING SAME, AND PROCESS FOR CONTROLLING TARGET RODENT PESTS” (priority 2015, published 2018):

Format: in vivo, "Sprague-Dawley" SD rats
Conditions: per os tube feeding, about 13 mg bromadiolone per kg (56% D1,2 / 44% D3,4), liver on D1, D3, D7, male and female rats, FIG. 2
Method: Separation of the configurational stereoisomers of bromadiolone is performed by high-pressure liquid chromatography (HPLC) on a LUX® Cellulose-1 chiral column (Phenomenex, Le Pecq, France) containing a chiral stationary phase constituted of particles of cellulose tris(3,5-dimethylphenyl carbamate), said particles having a mean size of 3 μm and having a mean pore size of 1000 Å. A mixture formed from acetonitrile (A) and water comprising 0.1% by volume of formic acid (B), with an A/B volume ratio of 80/20 and with a flow rate of 0.25 mL/minute in the chromatography column, is used as mobile phase. The concentration of the composition to be analysed is 1 μg of bromadiolone per millilitre of acetonitrile and the volume injected onto the column is 1 μL. Detection is performed by tandem mass spectrometry (MS/MS) in negative electrospray ionization (ESI) mode. The temperature of the nebulizer gas is 350° C. and its flow rate is 8 L/minute. The pressure of the nebulizer gas is brought to 2700 hPa. In particular, the MRM (“Multiple Reaction Monitoring”) transitions m/z 525.1→250.1 and m/z 525.1→181, corresponding to bromadiolone, are detected.
About 0.525 g (±0.025 g) of rat liver is weighed out accurately and placed in a 50 mL polypropylene tube. 10 mL of acetone are added and the suspension is homogenized using an Ultra-Turrax® homogenizer/disperser for a time of about 30 seconds. […]

Row | Structure (SMILES) | persistence in the liver of the rats (hepatic concentration of the diastereoisomers)
1 | O=c1oc2ccccc2c(O)c1C(CC(O)c1ccc(-c2ccc(Br)cc2)cc1)c1ccccc1 (single isomer, unassigned) [diastereoisomer D1,2] | longer persistence in the liver of the rats than the persistence of said diastereoisomer D3,4
2 | O=c1oc2ccccc2c(O)c1C(CC(O)c1ccc(-c2ccc(Br)cc2)cc1)c1ccccc1 (single isomer, unassigned) [diastereoisomer D3,4] | less persistent in the liver of target rodents
